Measured values reported in PubChem BioAssay (NCI).
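In this assay, cells in 96-well plates receive the compound at five concentrations for 48 hours. Endpoints are linearly interpolated between the surrounding concentrations. Here, GI50 denotes the concentration required for 50% inhibition of growth. TGI: total growth inhibition.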

Legend:
Test in all cases: growth of human tumour cells (NCI), 48 h; in the data active means GI50 below about 0.43 µM; inactive means the rest
NCI/ADR-RES ovarian = system: NCI/ADR-RES ovarian
OVCAR-3 ovarian = system: OVCAR-3 ovarian
HT29 colon = system: HT29 colon
MDA-MB-435 = system: MDA-MB-435
M14 melanoma = system: M14 melanoma
DU-145 prostate = system: DU-145 prostate
A549 NSCLC = system: A549 NSCLC
OVCAR-5 ovarian = system: OVCAR-5 ovarian
MOLT-4 leukemia = system: MOLT-4 leukemia
UACC-257 melanoma = system: UACC-257 melanoma
NCI-H23 lung = system: NCI-H23 lung
SNB-19 CNS = system: SNB-19 CNS
SK-MEL-2 melanoma = system: SK-MEL-2 melanoma
UACC-62 melanoma = system: UACC-62 melanoma
TK-10 renal = system: TK-10 renal
HCC-2998 colon = system: HCC-2998 colon
SK-MEL-5 melanoma = system: SK-MEL-5 melanoma
OVCAR-4 ovarian = system: OVCAR-4 ovarian
HL-60(TB) leukemia = system: HL-60(TB) leukemia
A498 renal = system: A498 renal
IGROV1 ovarian = system: IGROV1 ovarian
HS 578T breast = system: HS 578T breast
OVCAR-8 ovarian = system: OVCAR-8 ovarian
UO-31 renal = system: UO-31 renal
SK-MEL-28 melanoma = system: SK-MEL-28 melanoma
MALME-3M melanoma = system: MALME-3M melanoma
MDA-MB-231 breast = system: MDA-MB-231 breast
786-0 renal = system: 786-0 renal
RPMI-8226 leukemia = system: RPMI-8226 leukemia
HOP-62 NSCLC = system: HOP-62 NSCLC
PC-3 prostate = system: PC-3 prostate
HOP-92 NSCLC = system: HOP-92 NSCLC
EKVX NSCLC = system: EKVX NSCLC
HCT-15 colon = system: HCT-15 colon
SK-OV-3 ovarian = system: SK-OV-3 ovarian
SN12C renal = system: SN12C renal
U251 CNS = system: U251 CNS
SR leukemia = system: SR leukemia
COLO 205 colon = system: COLO 205 colon
ACHN renal = system: ACHN renal
NCI-H460 lung = system: NCI-H460 lung
NCI-H522 lung = system: NCI-H522 lung
K-562 leukemia = system: K-562 leukemia
T-47D breast = system: T-47D breast
BT-549 breast = system: BT-549 breast
HCT-116 colon = system: HCT-116 colon
NCI-H226 lung = system: NCI-H226 lung
KM12 colon = system: KM12 colon
SF-295 CNS = system: SF-295 CNS
CCRF-CEM leukemia = system: CCRF-CEM leukemia
LOX IMVI melanoma = system: LOX IMVI melanoma
CAKI-1 renal = system: CAKI-1 renal
MCF7 breast = system: MCF7 breast
RXF 393 renal = system: RXF 393 renal
SF-539 CNS = system: SF-539 CNS
SNB-75 CNS = system: SNB-75 CNS
SW-620 colon = system: SW-620 colon
SF-268 CNS = system: SF-268 CNS
MDA-N = system: MDA-N

CCCCCCOc1ccc(/C=N/Nc2cc(C)nc3ccc(Br)cc23)cc1
3.32 µM: TGI (SK-MEL-2 melanoma) | TGI (NCI-H522 lung)
2.96 µM: TGI (K-562 leukemia)
3.04 µM: TGI (SK-MEL-5 melanoma) | TGI (CAKI-1 renal)
4.12 µM: TGI (OVCAR-8 ovarian)
4.49 µM: TGI (HS 578T breast)
3.84 µM: TGI (NCI/ADR-RES ovarian)
1.85 µM: TGI (SR leukemia)
3.2 µM: TGI (SF-295 CNS)
3.14 µM: TGI (EKVX NSCLC)
3.35 µM: TGI (MCF7 breast)
active: GI50 (SR leukemia) 0.396 µM
3.12 µM: TGI (HT29 colon)
4.24 µM: TGI (SF-268 CNS)
3.29 µM: TGI (SF-539 CNS)
3.51 µM: TGI (COLO 205 colon)
3.38 µM: TGI (MALME-3M melanoma)
2.97 µM: TGI (HOP-92 NSCLC)
3.18 µM: TGI (MOLT-4 leukemia) | TGI (786-0 renal)
3.5 µM: TGI (KM12 colon)
3.88 µM: TGI (NCI-H460 lung)
3.23 µM: TGI (PC-3 prostate)
3.72 µM: TGI (T-47D breast)
3.17 µM: TGI (SN12C renal)
4.06 µM: TGI (RPMI-8226 leukemia)
2.11 µM: TGI (HCT-116 colon)
2.88 µM: TGI (HCT-15 colon)
3.16 µM: TGI (MDA-MB-435) | TGI (NCI-H226 lung)
inactive: GI50 (NCI/ADR-RES ovarian) 1.9 µM | GI50 (OVCAR-3 ovarian) 1.94 µM | GI50 (HT29 colon) 1.63 µM | GI50 (MDA-MB-435) 1.73 µM | GI50 (M14 melanoma) 1.67 µM | GI50 (DU-145 prostate) 1.92 µM | GI50 (A549 NSCLC) 1.78 µM | GI50 (OVCAR-5 ovarian) 1.94 µM | GI50 (MOLT-4 leukemia) 1.2 µM | GI50 (UACC-257 melanoma) 1.95 µM | GI50 (NCI-H23 lung) 1.78 µM | GI50 (SNB-19 CNS) 1.83 µM | GI50 (SK-MEL-2 melanoma) 1.78 µM | GI50 (UACC-62 melanoma) 1.74 µM | GI50 (TK-10 renal) 1.93 µM | GI50 (HCC-2998 colon) 2.03 µM | GI50 (SK-MEL-5 melanoma) 1.67 µM | GI50 (OVCAR-4 ovarian) 1.81 µM | GI50 (HL-60(TB) leukemia) 1.29 µM | GI50 (A498 renal) 1.58 µM | GI50 (IGROV1 ovarian) 1.75 µM | GI50 (HS 578T breast) 2.16 µM | GI50 (OVCAR-8 ovarian) 2.07 µM | GI50 (UO-31 renal) 1.53 µM | GI50 (SK-MEL-28 melanoma) 1.81 µM | GI50 (MALME-3M melanoma) 1.87 µM | GI50 (MDA-MB-231 breast) 1.62 µM | GI50 (786-0 renal) 1.71 µM | GI50 (RPMI-8226 leukemia) 1.86 µM | GI50 (HOP-62 NSCLC) 1.47 µM | GI50 (PC-3 prostate) 1.65 µM | GI50 (HOP-92 NSCLC) 1.45 µM | GI50 (EKVX NSCLC) 1.72 µM | GI50 (HCT-15 colon) 1.52 µM | GI50 (SK-OV-3 ovarian) 1.66 µM | GI50 (SN12C renal) 1.69 µM | GI50 (U251 CNS) 1.87 µM | GI50 (COLO 205 colon) 1.85 µM | GI50 (ACHN renal) 1.74 µM | GI50 (NCI-H460 lung) 1.94 µM | GI50 (NCI-H522 lung) 1.7 µM | GI50 (K-562 leukemia) 1.07 µM | GI50 (T-47D breast) 1.82 µM | GI50 (BT-549 breast) 1.91 µM | GI50 (HCT-116 colon) 0.85 µM | GI50 (NCI-H226 lung) 1.6 µM | GI50 (KM12 colon) 1.8 µM | GI50 (SF-295 CNS) 1.72 µM | GI50 (CCRF-CEM leukemia) 1.71 µM | GI50 (LOX IMVI melanoma) 1.53 µM | GI50 (CAKI-1 renal) 1.66 µM | GI50 (MCF7 breast) 1.64 µM | GI50 (RXF 393 renal) 1.55 µM | GI50 (SF-539 CNS) 1.87 µM | GI50 (SNB-75 CNS) 1.84 µM | GI50 (SW-620 colon) 1.56 µM | GI50 (SF-268 CNS) 2.07 µM
3.97 µM: TGI (CCRF-CEM leukemia)
2.9 µM: TGI (LOX IMVI melanoma)
3.24 µM: TGI (UACC-62 melanoma) | TGI (SK-MEL-28 melanoma)
3.43 µM: TGI (A549 NSCLC) | TGI (NCI-H23 lung) | TGI (SNB-19 CNS)
3.26 µM: TGI (HL-60(TB) leukemia)
3.08 µM: TGI (M14 melanoma) | TGI (MDA-MB-231 breast)
3.46 µM: TGI (OVCAR-4 ovarian) | TGI (SNB-75 CNS)
3.56 µM: TGI (HCC-2998 colon) | TGI (SW-620 colon)
2.94 µM: TGI (HOP-62 NSCLC)
2.89 µM: TGI (UO-31 renal)
3.91 µM: TGI (BT-549 breast)
3.7 µM: TGI (DU-145 prostate)
3.65 µM: TGI (OVCAR-3 ovarian) | TGI (UACC-257 melanoma)
3.11 µM: TGI (ACHN renal)
3.36 µM: TGI (OVCAR-5 ovarian) | TGI (TK-10 renal) | TGI (U251 CNS)
3.07 µM: TGI (SK-OV-3 ovarian)
3.45 µM: TGI (IGROV1 ovarian)
3.09 µM: TGI (A498 renal)
2.95 µM: TGI (RXF 393 renal)

CSc1cc(Cl)c(C)cc1S(=O)(=O)NC(=O)NNc1cnc2ccccc2n1
56.8 µM: TGI (MOLT-4 leukemia)
> 100 µM: TGI (NCI/ADR-RES ovarian) | TGI (OVCAR-3 ovarian) | TGI (HT29 colon) | TGI (MDA-MB-435) | TGI (M14 melanoma) | TGI (DU-145 prostate) | TGI (A549 NSCLC) | TGI (OVCAR-5 ovarian) | TGI (SNB-19 CNS) | TGI (SK-MEL-2 melanoma) | TGI (HCC-2998 colon) | TGI (SK-MEL-5 melanoma) | TGI (OVCAR-4 ovarian) | TGI (A498 renal) | TGI (IGROV1 ovarian) | TGI (HS 578T breast) | TGI (MDA-N) | TGI (OVCAR-8 ovarian) | TGI (SK-MEL-28 melanoma) | TGI (MALME-3M melanoma) | TGI (MDA-MB-231 breast) | TGI (786-0 renal) | TGI (HOP-62 NSCLC) | TGI (PC-3 prostate) | TGI (EKVX NSCLC) | TGI (HCT-15 colon) | TGI (SK-OV-3 ovarian) | TGI (SN12C renal) | TGI (U251 CNS) | TGI (SR leukemia) | TGI (COLO 205 colon) | TGI (ACHN renal) | TGI (NCI-H460 lung) | TGI (NCI-H522 lung) | TGI (K-562 leukemia) | TGI (T-47D breast) | TGI (HCT-116 colon) | TGI (NCI-H226 lung) | TGI (KM12 colon) | TGI (SF-295 CNS) | TGI (CCRF-CEM leukemia) | TGI (LOX IMVI melanoma) | TGI (CAKI-1 renal) | TGI (MCF7 breast) | TGI (RXF 393 renal) | TGI (SF-539 CNS) | TGI (SW-620 colon) | TGI (SF-268 CNS)
